Assay results published in patent US6586216B2 (Purdue Research Foundation, priority 1997, dated 2003).
pIC50, pKd: −log10 of the molar value. “And” between values parts separate entries of the source, which are not always exact repeats. Equal values may be shown once. Read-outs that look alike come from different tables or passages of the source.

Key:
[1] = molecular target: T1, glutamine PRPP amidotransferase S347A mutant enzyme (Bacillus subtilis, UniProt P00497, S358A); type: biochemical
T1 construct: Enzymes of the B. subtilis class are synthesized with an NH2 terminal propeptide and an Fe—S center; made in house; host or cells: E. coli strain TX158 (purF) with plasmid pBsF/S347A
T1 sequence (P00497 12-476 S358A): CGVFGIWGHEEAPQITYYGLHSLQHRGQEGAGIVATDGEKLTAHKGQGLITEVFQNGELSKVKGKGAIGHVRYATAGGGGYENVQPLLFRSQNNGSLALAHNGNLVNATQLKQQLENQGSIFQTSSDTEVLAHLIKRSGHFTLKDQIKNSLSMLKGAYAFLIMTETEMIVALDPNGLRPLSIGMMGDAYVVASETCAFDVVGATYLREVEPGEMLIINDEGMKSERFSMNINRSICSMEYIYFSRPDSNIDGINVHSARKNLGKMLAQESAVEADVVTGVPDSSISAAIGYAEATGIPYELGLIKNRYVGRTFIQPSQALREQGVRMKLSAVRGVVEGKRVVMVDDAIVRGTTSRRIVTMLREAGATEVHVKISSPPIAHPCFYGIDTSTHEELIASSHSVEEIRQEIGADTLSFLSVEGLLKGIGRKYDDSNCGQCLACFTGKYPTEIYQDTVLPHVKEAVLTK
Description: (§1) Enzyme activity was assayed by measuring the initial rate of formation of the product glutamate. […] Incubation was at 37° C. for 6 min. […] Reactions were quenched in a boiling water bath for 2 min, and glutamate was determined by the glutamate dehydrogenase method.
(§2) Inhibition by nucleotides was determined by the standard assay to which varied concentrations of nucleotide were added. Synergistic inhibition was determined by varying the concentration of one nucleotide in the presence of a fixed concentration of a second nucleotide. Relative activity (see FIG. 1) refers to the enzyme activity at a given concentration of the varied nucleotide relative to that in the absence of the varied nucleotide. I0.5 values were calculated from plots of relative activity versus varied nucleotide concentration.
(§3) These modified forms of amidotransferase were analyzed to determine the impact of the mutations on end-product inhibition and enzymatic activity. Inhibition by nucleotides was determined as described in Example 1.

[2] = molecular target: T2, glutamine PRPP amidotransferase K305Q mutant enzyme (Bacillus subtilis, UniProt P00497, K316Q); type: biochemical
T2 construct: Enzymes of the B. subtilis class are synthesized with an NH2 terminal propeptide and an Fe—S center; made in house; host or cells: E. coli strain TX158 (purF) with plasmid pBsF/K305Q
T2 sequence (P00497 12-476 K316Q): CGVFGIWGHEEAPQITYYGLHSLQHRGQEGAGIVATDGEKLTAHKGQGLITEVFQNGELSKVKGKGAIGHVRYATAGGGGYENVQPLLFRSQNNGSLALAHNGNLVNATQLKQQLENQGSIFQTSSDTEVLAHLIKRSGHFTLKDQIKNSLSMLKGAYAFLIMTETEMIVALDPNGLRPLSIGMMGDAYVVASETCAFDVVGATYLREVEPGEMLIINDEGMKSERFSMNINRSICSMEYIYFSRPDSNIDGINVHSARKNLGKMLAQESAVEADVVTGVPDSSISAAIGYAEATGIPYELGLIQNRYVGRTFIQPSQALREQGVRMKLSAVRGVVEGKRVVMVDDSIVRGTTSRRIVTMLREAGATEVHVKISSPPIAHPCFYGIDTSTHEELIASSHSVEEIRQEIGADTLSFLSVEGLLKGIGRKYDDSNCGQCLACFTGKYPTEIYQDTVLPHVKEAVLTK
Description: as §1, §2, §3

[3] = molecular target: T3, Bacillus subtilis glutamine PRPP amidotransferase variant K305Q (Bacillus subtilis, UniProt P00497, K316Q); experiment: Inhibition of enzyme activity (glutamate formation) by nucleotides, mutant K305Q; type: biochemical
T3 construct: Enzymes of the B. subtilis class are synthesized with an NH2 terminal propeptide; made in house; host or cells: E. coli strain TX158 (purF), plasmid pBsF/K305Q
T3 sequence (P00497 12-476 K316Q): as above
Excerpt: (§4) Plasmid pGZ1 was used for production of the wild type enzyme. Plasmid pGZ1 contains a 1.6 kb EcoRI-HindIII purF^+ fragment (Makaroff, C. A., Zalkin, H., Switzer, R. L., and Vollmer, S. J. (1983) J. Biol. Chem. 258, pp. 10586-10593) inserted into the corresponding sites of pUC18. For construction of mutants, the EcoRI-HindIII purF^+ DNA was transferred to pUC118 to yield pBsF. Mutations were constructed by the method of Kunkel et al. (Kunkel, T. A., Roberts, J. D., and Zakour, R. A. (1987) Methods Enzymol. 154, pp. 367-382) using pBsF phagemid DNA. The resulting plasmids were named pBsF/S283A, pBsF/K305Q, pBsF/R307Q, and pBsF/S347A.
(§5) Enzyme activity was assayed by measuring the initial rate of formation of the product glutamate. […] Incubation was at 37° C. for 6 min. The reaction was linear with time for at least 20 min under these conditions of assay. Reactions were quenched in a boiling water bath for 2 min, and glutamate was determined by the glutamate dehydrogenase method. The control reaction mixture contained all the components except PRPP.
as §2
as §3, with “Site directed mutagenesis was utilized to modify amino acids comprising the A site and C site domains of the glutamine PRPP amidotransferase. These” for “These”

[4] = molecular target: T4, Bacillus subtilis glutamine PRPP amidotransferase variant R307Q (Bacillus subtilis, UniProt P00497, R318Q); experiment: Inhibition of enzyme activity (glutamate formation) by nucleotides, mutant R307Q; type: biochemical
T4 construct: Enzymes of the B. subtilis class are synthesized with an NH2 terminal propeptide; made in house; host or cells: E. coli strain TX158 (purF), plasmid pBsF/R307Q
T4 sequence (P00497 12-476 R318Q): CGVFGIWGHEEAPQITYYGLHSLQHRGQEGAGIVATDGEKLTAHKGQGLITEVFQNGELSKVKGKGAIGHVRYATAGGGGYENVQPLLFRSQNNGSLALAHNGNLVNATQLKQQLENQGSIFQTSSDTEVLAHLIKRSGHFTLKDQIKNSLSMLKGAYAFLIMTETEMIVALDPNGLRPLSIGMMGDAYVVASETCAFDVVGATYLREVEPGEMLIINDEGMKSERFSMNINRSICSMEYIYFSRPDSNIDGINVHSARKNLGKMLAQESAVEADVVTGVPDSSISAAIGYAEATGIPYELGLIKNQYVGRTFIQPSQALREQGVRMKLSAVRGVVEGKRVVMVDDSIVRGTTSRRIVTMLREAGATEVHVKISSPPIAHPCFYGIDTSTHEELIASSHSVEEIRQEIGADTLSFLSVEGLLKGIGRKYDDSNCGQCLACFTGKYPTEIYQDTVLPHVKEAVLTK
Excerpt: as §4, §5, §2
as §3, with “Site directed mutagenesis was utilized to modify amino acids comprising the A site and C site domains of the glutamine PRPP amidotransferase. These” for “These”

[5] = molecular target: T5, wild type B. subtilis glutamine PRPP amidotransferase (Bacillus subtilis, UniProt P00497); experiment: Inhibition of enzyme activity by nucleotides (glutamate formation assay), wild type; type: biochemical; details: wild type; for Hill coefficient determined from inhibition data: PRPP present
T5 construct: Enzymes of the B. subtilis class are synthesized with an NH2 terminal propeptide and an Fe—S center; made in house; host or cells: E. coli strain TX158 (purF) with plasmid pGZ1
T5 sequence (P00497 12-476): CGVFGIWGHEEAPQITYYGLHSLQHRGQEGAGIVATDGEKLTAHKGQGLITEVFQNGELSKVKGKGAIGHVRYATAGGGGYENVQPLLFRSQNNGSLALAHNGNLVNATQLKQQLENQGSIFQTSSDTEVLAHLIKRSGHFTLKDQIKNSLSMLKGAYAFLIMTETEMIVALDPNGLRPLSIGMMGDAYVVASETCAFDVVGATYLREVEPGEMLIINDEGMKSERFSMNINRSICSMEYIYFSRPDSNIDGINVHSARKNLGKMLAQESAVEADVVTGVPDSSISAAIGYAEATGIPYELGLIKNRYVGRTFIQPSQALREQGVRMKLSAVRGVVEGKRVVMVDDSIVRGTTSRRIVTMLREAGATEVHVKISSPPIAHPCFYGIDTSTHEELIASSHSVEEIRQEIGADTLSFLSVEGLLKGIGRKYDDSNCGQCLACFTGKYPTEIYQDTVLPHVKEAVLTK
Description: as §1, §2

[6] = molecular target: T5, wild type B. subtilis glutamine PRPP amidotransferase; experiment: Nucleotide binding by equilibrium dialysis
Description: Nucleotide binding was determined by equilibrium dialysis using chambers of 150 μL that were separated by a 12000-14000 molecular weight dialysis membrane. […] In some experiments, the chambers with radioactive nucleotide also contained a fixed concentration of a second non-radioactive nucleotide. The other chamber contained 50 mM Tris-HCl (pH 7.5) and 50-200 μM enzyme, calculated as the subunit concentration, in a volume of 100 μL. Dialysis was carried out for 20 h at room temperature (˜22° C.) in a rotating apparatus. Samples of 80 μL were retrieved from each chamber and were counted for radioactivity. All experiments were performed in an anaerobic glovebox. […] Equilibrium binding data were fit to the Hill equation (Y=C [free ligand]^n/[…]+[free ligand]^n, where Y is the fractional saturation, C is the binding capacity, Kd is the dissociation constant, and n is the Hill coefficient) by nonlinear regression using Ultrafit software (Biosoft, Cambridge, UK).

[7] = I0.5, no fixed nucleotide, 2.5 mM PRPP, pH 8.0, 37° C.
[8] = no fixed nucleotide, at saturation ± standard error

Nc1ncnc2c1ncn2[C@@H]1O[C@H](COP(=O)(O)OP(=O)(O)O)[C@@H](O)[C@H]1O [ADP]
syn. ([1]; fixed GMP 1.4 mM (footnote c)): 37.0 | syn. ([2]; fixed GMP 0.50 mM): 2.6 | syn. ([2]; fixed GMP 5.0 mM): 97.0 | pIC50 ([3]; I0.5, fixed GMP 0.50 mM): 1.92 | pIC50 ([3]; I0.5, fixed GMP 5.0 mM): 3.49 | pIC50 [3, 7]: 1.51 | syn. (decreased I0.5 due to a second nucleotide) ([3]; fixed GMP 0.50 mM): 2.6 fold | syn. (decreased I0.5 due to a second nucleotide) ([3]; fixed GMP 5.0 mM): 97.0 fold | pIC50 ([4]; I0.5, fixed GMP 0.50 mM): 2.62 | pIC50 ([4]; I0.5, fixed GMP 5.0 mM): 3.74 | pIC50 [4, 7]: 1.55 | syn. (decreased I0.5 due to a second nucleotide) ([4]; fixed GMP 0.50 mM): 12.0 fold | syn. (decreased I0.5 due to a second nucleotide) ([4]; fixed GMP 5.0 mM): 156.0 fold | Hill coefficient determined from inhibition data [5]: 3.8 | syn. ([5]; fixed AMP 0.1 mM): 1.9 | syn. (decreased I0.5 due to a second nucleotide) ([5]; fixed GMP 0.25 mM): 20 | syn. ([5]; fixed GMP 0.50 mM): 29.0 | syn. ([5]; fixed GMP 1.0 mM): 59 | syn. ([5]; fixed GMP 2.0 mM): 118.0 | syn. ([5]; fixed GMP 4.0 mM): 188.0 | concentration required for 50% inhibition relative to that of AMP ([5]; single nucleotide): 5 fold | synergistic binding (decrease of Kd by second nucleotide) ([6]; ADP-GMP pair): 20 fold | equiv bound ([6]; GMP fixed at either 0.25 or 1.0 mM): approximately 1 equiv | Capacity ([6]; fixed GMP 0.25 mM): 0.82 ± 0.11 equivalents bound per subunit | Hill coefficient ([6]; fixed GMP 0.25 mM): 1.8 ± 0.8 | Capacity ([6]; fixed GMP 1.0 mM): 0.94 ± 0.14 equivalents bound per subunit | Hill coefficient ([6]; fixed GMP 1.0 mM): 1.7 ± 0.9 | Capacity [6, 8]: 1.83 equivalents bound per subunit and 1.83 ± 0.26 equivalents bound per subunit | Hill coefficient ([6]; no fixed nucleotide, binding): 1.8 and 1.8 ± 0.65

Nc1ncnc2c1ncn2[C@@H]1O[C@H](COP(=O)(O)O)[C@@H](O)[C@H]1O [AMP]
syn. ([1]; fixed ADP 0.8 mM (footnote c)): 2.3 | syn. ([1]; fixed GMP 1.4 mM (footnote c)): 0.8 | pIC50 [3, 7]: 2.60 | pIC50 [4, 7]: 2.59 | Hill coefficient determined from inhibition data [5]: 3.3-3.8 | syn. ([5]; fixed ADP 0.5 mM): 1.4 | syn. ([5]; fixed GMP 1.0 mM): 1.0 | pKd ([6]; Kd, no fixed nucleotide, apparent Kd, half-saturation of A and C sites): 3.67 and < 3.30 | increase in binding affinity by second nucleotide ([6]; by GMP or ADP): 2-3 fold | Hill coefficient ([6]; fixed ADP 0.25 mM): 2.3 ± 1.2 | Capacity ([6]; fixed ADP 0.5 mM): approximately 0.4 equivalents bound per subunit | Hill coefficient ([6]; fixed GMP 1.0 mM): 2.1 ± 0.80 | Capacity [6, 8]: 1.57 equivalents bound per subunit and 1.57 ± 0.27 equivalents bound per subunit | Hill coefficient ([6]; no fixed nucleotide, binding): 3.4 and 3.4 ± 1.8

Nc1nc2c(ncn2[C@@H]2O[C@H](COP(=O)(O)O)[C@@H](O)[C@H]2O)c(=O)[nH]1 [GMP]
syn. ([1]; fixed ADP 0.8 mM (footnote c)): 33.0 | I0.5 increase compared to wild type ([1]; inhibition at the C site, ADP fixed): 3 fold | syn. ([2]; fixed ADP 0.5 mM): 8.3 | syn. ([2]; fixed ADP 2.5 mM): 38.0 | pIC50 ([3]; I0.5, fixed ADP 0.5 mM): 2.22 | pIC50 ([3]; I0.5, fixed ADP 2.5 mM): 2.89 | pIC50 [3, 7]: 1.30 | syn. (decreased I0.5 due to a second nucleotide) ([3]; fixed ADP 0.5 mM): 8.3 fold | syn. (decreased I0.5 due to a second nucleotide) ([3]; fixed ADP 2.5 mM): 38.0 fold | pIC50 ([4]; I0.5, fixed ADP 0.5 mM): 2.48 | pIC50 ([4]; I0.5, fixed ADP 2.5 mM): 3.12 | pIC50 [4, 7]: 1.30 | syn. (decreased I0.5 due to a second nucleotide) ([4]; fixed ADP 0.5 mM): 15.0 fold | syn. (decreased I0.5 due to a second nucleotide) ([4]; fixed ADP 2.5 mM): 66.0 fold | syn. ([5]; fixed ADP 0.5 mM): 63 | syn. ([5]; fixed AMP 0.1 mM): 0.95 | concentration required for 50% inhibition relative to that of ADP ([5]; single nucleotide): 2 fold | concentration required for 50% inhibition relative to that of AMP ([5]; single nucleotide): 10 fold | increased C site binding affinity relative to IMP and AMP ([6]; ADP bound to the A site): 3 fold | Capacity ([6]; fixed ADP 0.5 mM): 1 equivalents bound per subunit and 0.98 ± 0.10 equivalents bound per subunit | Hill coefficient ([6]; fixed ADP 0.5 mM): 2.1 ± 1.0 | Kd of GMP for the free enzyme, estimated assuming 20-fold synergism ([6]; no fixed nucleotide): approximately 500 μM | Kd ([6]; no fixed nucleotide, apparent Kd, half-saturation of A and C sites): too weak to detect
